Publication PMC11124394, “Novel Combretastatin A-4 Analogs—Design, Synthesis, and Antiproliferative and Anti-Tubulin Activity” (Molecules, 2024)
Where two headings read alike, the source gives them in different places.

What was measured:
Type in all cases: cell-based
[1] = tested on: HepG2 (liver cancer) cells; test: SRB cytotoxicity assay, HepG2; settings: Homo sapiens, read-out: Cytotoxicity IC50, HepG2
Protocol: (§1) The antiproliferative activity was tested on human primary (SW480) and metastatic (SW620) colon cancer, human prostate cancer (PC3), human liver cancer (HepG2), human breast cancer (MDA), human lung cancer (A549), and human immortalized keratinocyte (HaCaT) cell lines obtained from the American Type Culture Collection (ATCC, Rockville, MD, USA). The cells were cultured in EMEM (SW480 and SW620), RPMI 1640 (PC3) or DMEM High Glucose (HepG2, MDA, A549, and HaCaT) with stable glutamine supplemented with 10% heat-inactivated fetal bovine serum (FBS), penicillin (100 U/mL), and streptomycin (100 µg/mL) in 37 °C and 5% CO2/95% air humified incubator. The cells were grown until 80–90% confluence and then were harvested with 0.25% trypsin and used for the experiments. All the reagents for the cell culture were provided by VWR Chemicals.
(§2) Cytotoxicity was tested with the sulforhodamine B (SRB) assay according to the National Cancer Institute protocol with slight modifications. Briefly, cells were seeded on a 96-well plate (5 × 10^3 cells per well). After 24 h incubation, zero-time control cells were fixed with TCA (final concentration 5%) for 1 h at 4 °C. […] The untreated cells were used as the control. After incubation, the cells were fixed with TCA (final concentration 5%) for 1 h at 4 °C, gently washed 4 times with tap water, and left for drying. The dried fixed cells were incubated with SRB solution (0.05% SRB in 1% acetic acid) for 30 min rt, washed four times with 1% acetic acid, and left for drying. The dried cells were dissolved in 10 mM Tris-base solution (pH 10.5) and the absorbance was read at 510 nm.
(§3) The cell viability was presented as a percent of SRB reduction in the treated cells versus that in control cells. The mean absorbance for control cells was assumed as 100%. No-cell control (blank well) absorbance was assumed as 0%, unless the compound was cytostatic, then 0% referred to zero-time control. The IC50 values were calculated using the GraphPad Prism 10.1.2 (324) (USA) software. The most cytotoxic compounds (8 and 20) were selected for further in vitro experiments.

[2] = SRB cytotoxicity assay, HaCaT; settings: human, 48 h culture, mean ± SD, at least three independent experiments, compounds marked * : low solubility, real values might be lower
Protocol: as §1, §2, §3

[3] = tested on: SW480 (primary colon cancer) cells; test: SRB cytotoxicity assay, SW480; settings: Homo sapiens, read-out: Cytotoxicity IC50, SW480
Protocol: as §1, §2, §3

[4] = tested on: MDA (breast cancer) cells; test: SRB cytotoxicity assay, MDA; settings: Homo sapiens, read-out: Cytotoxicity IC50, MDA
Protocol: as §1, §2, §3

[5] = tested on: SW620 (metastatic colon cancer) cells; test: SRB cytotoxicity assay, SW620; settings: Homo sapiens, read-out: Cytotoxicity IC50, SW620
Protocol: as §1, §2, §3

[6] = tested on: PC3 (prostate cancer) cells; test: SRB cytotoxicity assay, PC3; settings: Homo sapiens, read-out: Cytotoxicity IC50, PC3
Protocol: as §1, §2, §3

A549 (lung cancer) cells = test: SRB cytotoxicity assay, A549; settings: Homo sapiens, read-out: Cytotoxicity IC50, A549
Protocol: as §1, §2, §3

[7] = tested on: six human cancer cell lines (SW480, SW620, PC3, HepG2, MDA, A549) and HaCaT; test: SRB cytotoxicity assay, whole panel; settings: cell line panel
Protocol: The antiproliferative properties of the studied combretastatin derivatives were tested on six human cancer cell lines, including primary colon (SW480), metastatic colon (SW620), prostate (PC3), liver (HepG2), breast (MDA), and lung (A549) cancer cells, and non-tumor human immortalized keratinocyte cell line (HaCaT) using the sulforhodamine B (SRB) assay. […] No selectivity was observed against the tumor cell lines when compared to that against the non-tumor cell line. Nevertheless, these values were much higher than the IC50 of the reference compounds (<0.2 μM).
as §1, §2, §3

[8] = HepG2, SRB assay, 48 h culture, mean ± SD, at least three independent experiments, compounds marked * : low solubility, real values might be lower
[9] = HaCaT immortalized keratinocyte cells (non-tumor cell line)
[10] = SW480, SRB assay, 48 h culture, mean ± SD, at least three independent experiments, compounds marked * : low solubility, real values might be lower
[11] = SRB assay, 48 h culture, mean ± SD, at least three independent experiments, compounds marked * : low solubility, real values might be lower
[12] = SW-620, SRB assay, 48 h culture, mean ± SD, at least three independent experiments, compounds marked * : low solubility, real values might be lower
[13] = A549, SRB assay, 48 h culture, mean ± SD, at least three independent experiments, compounds marked * : low solubility, real values might be lower

Row | SMILES | IC50 [1, 8] [µM] | IC50 at 48 h [2, 9] [µM] | IC50 [3, 10] [µM] | IC50 [4, 11] [µM] | IC50 [5, 12] [µM] | IC50 [6, 11] [µM] | IC50 (A549 (lung cancer) cells; [13]) [µM] | IC50 ([1]; HepG2, 48 h) [µM] | IC50 at 48 h ([2]; non-tumor cell line) [µM] | IC50 ([3]; SW480, 48 h) [µM] | IC50 ([4]; 48 h) [µM] | IC50 ([5]; SW-620, 48 h) [µM] | IC50 ([6]; 48 h) [µM] | IC50 (A549 (lung cancer) cells; A549, 48 h) [µM] | Cytotoxicity (in words) [7]
1 | COc1ccc(/C(=C\c2cc(OC)c(OC)c(OC)c2)C(=O)NCc2ccc(Cl)cc2)cc1Br [Compound 18] | 89.6 ± 24.4 | > 100 | > 100 | 66.7 ± 6.4 | > 100 | > 100 | 62.2 ± 8.6 | – | – | – | – | – | – | – | –
2 | C#CCOC(=O)/C(=C/c1cc(OC)c(OC)c(OC)c1)c1ccc(OC)c(Br)c1 [Compound 6] | > 100 | > 100 | > 100 | > 100 | > 100 | > 100 | > 100 | – | – | – | – | – | – | – | –
3 | COc1cc([C@@H]2c3cc4c(cc3[C@H](O)[C@H]3COC(=O)[C@H]23)OCO4)cc(OC)c1OC [podophyllotoxin, reference compound] | – | – | – | – | – | – | – | 0.0258 ± 0.0056 | 0.0316 ± 0.004 | 0.0444 ± 0.0022 | 0.0293 ± 0.0028 | 0.0292 ± 0.0078 | 0.0129 ± 0.0015 | 0.0247 ± 0.0039 | –
4 | CCCCNC(=O)/C(=C/c1cc(OC)c(OC)c(OC)c1)c1ccc(OC)c(Br)c1 [Compound 11] | 50.5 ± 17.5 | 58.6 ± 22.2 | 50.2 ± 11.2 | 61.4 ± 21.8 | 50.8 ± 14.5 | 67.2 ± 18.6 | 65.1 ± 17.3 | – | – | – | – | – | – | – | –
5 | CNC(=O)/C(=C/c1cc(OC)c(OC)c(OC)c1)c1ccc(OC)c(Br)c1 [Compound 10] | 50.5 ± 10.5 | 55.3 ± 17 | 52.2 ± 17.9 | 55.5 ± 20.3 | 46 ± 11.4 | 44.9 ± 12.1 | 49.3 ± 16.3 | – | – | – | – | – | – | – | –
6 | CCCN(CCC)C(=O)/C(=C/c1cc(OC)c(OC)c(OC)c1)c1ccc(OC)c(Br)c1 [Compound 19] | > 100 | > 100 | > 100 | > 100 | > 100 | > 100 | > 100 | – | – | – | – | – | – | – | did not show any cytotoxicity
7 | C#CCNC(=O)/C(=C/c1cc(OC)c(OC)c(OC)c1)c1ccc(OC)c(Br)c1 [Compound 12] | > 100 | > 100 | > 100 | > 100 | > 100 | > 100 | > 100 | – | – | – | – | – | – | – | –
8 | COc1ccc(/C(=C\c2cc(OC)c(OC)c(OC)c2)C(=O)NCc2ccccc2)cc1Br [Compound 13] | 56.2 ± 22.2 | 68.5 ± 4.8 | 59.8 ± 23 | 59.8 ± 18.8 | 62.4 ± 3.1 | 55.8 ± 23.7 | 82.1 ± 13.9 | – | – | – | – | – | – | – | –
9 | COc1ccc(/C(=C\c2cc(OC)c(OC)c(OC)c2)C(=O)N2CCOCC2)cc1Br [Compound 21] | > 100 | > 100 | > 100 | > 100 | > 100 | > 100 | > 100 | – | – | – | – | – | – | – | –
10 | COC(=O)/C(=C/c1cc(OC)c(OC)c(OC)c1)c1ccc(OC)c(Br)c1 [Compound 4] | 63.7 ± 12.6 | 68.3 ± 19.6 | 57.6 ± 9.4 | 55.2 ± 17.3 | 61.8 ± 11.4 | 65.9 ± 16.1 | 53 ± 10.8 | – | – | – | – | – | – | – | –
